Key:
DENV2 NGC [1] = details: dose-response, inhibitor present during entire single round, MOI 1, 24 hpi
DENV2 NGC [2] = experiment: time-of-addition experiments, BHK21 cells, viral plaque assay; type: cell-based, dengue virus; details: 15 μM, BHK21, MOI 1, yield at 24 hpi
[3] = target: recombinant, soluble DENV2 E protein (sE), prefusion (Dengue virus type 2, UniProt P14340); experiment: Alphascreen assay, GNF2-biotin and prefusion sE; details: increasing concentrations, 20 nM to 10 μM
DENV2 NGC [4] = experiment: low MOI multiple replication cycle infection experiment; type: cell-based, dengue virus; details: MOI 0.01, treatment delayed until 24 hpi; GNF-2 15 μM, 8b 5 μM; titers at 48, 72 hpi

NC(=O)c1cccc(-c2cc(Nc3ccc(OC(F)(F)F)cc3)ncn2)c1 [GNF-2]
antiviral activity in single-cycle virus yield reduction assay (DENV2 NGC [1]): more antiviral activity than imatinib
antiviral effect when added post-infection (POST, 0-5 hours) (DENV2 NGC [2]): inhibit DENV2
antiviral effect when pre-incubated with viral inoculum (PRE virus) (DENV2 NGC [2]): additional antiviral activity
competition with GNF2-biotin for prefusion sE (Alphascreen signal) [3]: decrease the Alphascreen signal
inhibition of DENV2 over multiple replication cycles (DENV2 NGC [4]): inhibit DENV2

Source: publication PMC4865888 (Cell chemical biology, 2016)
